Assay results published in patent US20210386367A1, “DEVICES AND SYSTEMS FOR GASTROINTESTINAL MICROBIOME DETECTION AND MANIPULATION” (Progenity, Inc., priority 2018, published 2021).
Values after ≈ are worked out from the molar mass of the structure shown. Read-outs that look alike come from different tables or passages of the source.

How the values were obtained:
Fusobacterium spp [1] = details: cited from earlier work
Bacteroides fragilis [2] = details: cited from earlier work
Proteus mirabilis = details: cited from earlier work
Veillonella = details: cited from earlier work
[3] = test system: Bacteroides spp. (B. fragilis ATCC 25285, B. vulgatus, B. ovatus MMX 3503); details: cited from earlier work
Klebsiella pneumoniae = details: cited from earlier work
XDR Enterobacteriaceae = details: cited from earlier work
B. fragilis ATCC 25285 [4] = experiment: Time-kill assay; type: cell-based, Bacteroides fragilis; details: 2×, 4×, 8× MIC; 2, 6, 24, 48 hr
B. fragilis = experiment: Spontaneous mutation frequency and mutation prevention concentration (MPC); type: cell-based; details: B. fragilis ATCC 25285
Source text: (§1) As used herein, “spontaneous mutation frequency” refers to the rate at which mutations arise in a bacterium that can lead to resistance to develop to an antimicrobial agent. “Mutation prevention concentration” or “MPC” refers to the lowest concentration of antimicrobial agent above which the selective proliferation of resistant mutants is expected to occur only rarely.

B. ovatus = experiment: as above; type: cell-based; details: B. ovatus MMX 3503
Source text: as §1

[5] = test system: Bacteroides spp. spontaneous mutants; details: B. fragilis ATCC 25285; CLSI QC range shown in parentheses; cited from earlier work
Enterobacter spp. = details: cited from earlier work
[6] = test system: E. coli (ATCC 25922, ATCC 35218, MMX 1312); details: cited from earlier work
Prevotella melanogenica = details: cited from earlier work
Enterobacteriaceae = details: cited from earlier work
B. fragilis ATCC 25285 [7] = details: B. fragilis MMX 123 ATCC 25285; cited from earlier work
Klebsiella spp. = details: cited from earlier work
Pseudomonas aeruginosa = details: cited from earlier work
Bacteroides fragilis [8] = details: cited from earlier work; remark: listed apart in the source
Bacteroides spp = details: cited from earlier work
[9] = test system: Clostridium spp. clinical isolates; experiment: MIC distribution against clinical isolates; type: cell-based; details: MIC 8 μg/mL; 10 Clostridium spp. isolates
Source text: (n=4 C. sporogenes, n=2 C. ramosum and n=4 C. innocuum) clinical isolates (μg/mL).
As used herein, “minimum inhibitory concentration” or “MIC” refers to the lowest concentration of an antimicrobial agent, for example, an antimicrobial agent as described herein, required to inhibit the growth of an organism. […] “MIC90” represents the MIC value at which ≥90% of the strains within a test population are inhibited; the 90th percentile.
Many susceptibility testing methods are known in the art and can be used as described herein (see, e.g., Jorgensen and Ferraro (2009) Clinical Infectious Diseases 49:1749-1755; and Maurer et al. (2017) Infectious Disease Reports 9:6839; the entire contents of each of the foregoing are incorporated herein by reference). For example, antimicrobial susceptibility can be determined using conventional culture based methods such as the broth or agar dilution test. In these dilution tests, the bacterial isolate of interest is inoculated onto different media that include serial dilutions of an antimicrobial agent, and incubated under appropriate conditions (e.g., overnight at 37° C.) to allow for growth to occur. Following the incubation period, the media is examined to determine bacterial growth. The lowest concentration of antibiotic that prevents growth represents the minimal inhibitory concentration (MIC). Broth dilution tests can be miniaturized and mechanized allowing for reproducibility and high throughput.

Staphylococci = details: cited from earlier work
Fusobacterium spp [10] = details: cited from earlier work; remark: listed apart in the source
Bacteroides ovatus = details: cited from earlier work
[11] = rifaximin selection 4X MIC, 1 μg/mL
[12] = rifaximin selection 8X MIC, 2 μg/mL
[13] = rifaximin selection 4X MIC, 2 μg/mL
[14] = rifaximin selection 8X MIC, 4 μg/mL

C[C@@H](O)[C@H]1C(=O)N2C(C(=O)O)=C(S[C@@H]3CN[C@H](C(=O)N(C)C)C3)[C@H](C)[C@H]12 [meropenem]
% S (Fusobacterium spp [1]): 100%
MIC50 (Fusobacterium spp [1]): 0.125 µg/mL (≈ 0.326 µM)
MIC90 (Fusobacterium spp [1]): 0.25 µg/mL (≈ 0.652 µM)
MIC range (Fusobacterium spp [1]): ≤0.03 to 0.5 µg/mL
% S (Bacteroides fragilis [2]): 94.5%
MIC50 (Bacteroides fragilis [2]): 0.25 µg/mL (≈ 0.652 µM)
MIC90 (Bacteroides fragilis [2]): 4 µg/mL (≈ 10.4 µM)
% S (Proteus mirabilis): 99.4%
MIC50 (Proteus mirabilis): 0.06 µg/mL (≈ 0.156 µM)
MIC90 (Proteus mirabilis): 0.12 µg/mL (≈ 0.313 µM)
% S (Veillonella): 100%
MIC50 (Veillonella): ≤0.03 µg/mL
MIC90 (Veillonella): ≤0.03 µg/mL
MIC range (Veillonella): ≤0.03 to 0.25 µg/mL
CLSI QC range (agar MIC) [3]: 0.03 to 0.25 µg/mL
% S (Klebsiella pneumoniae): 38.3%
MIC50 (Klebsiella pneumoniae): 8 µg/mL (≈ 20.9 µM)
MIC90 (Klebsiella pneumoniae): 64 µg/mL (≈ 167 µM)
% S (XDR Enterobacteriaceae): 20.5%
MIC50 (XDR Enterobacteriaceae): 8 µg/mL (≈ 20.9 µM)
MIC90 (XDR Enterobacteriaceae): >8 µg/mL
time-kill kinetics outcome (bactericidal = ≥3 log reduction in CFU per mL) (B. fragilis ATCC 25285 [4]): rapid bactericidal activity against this organism at 6, 24 and 48 hr at 8×MIC, 24 and 48 hr at 4×MIC and at 24 hr at 2×MIC
MPC (B. fragilis): 0.5 µg/mL
Average Count (B. fragilis; selection 4X MIC, 0.5 μg/mL): 0 CFU
Count 1 (B. fragilis; selection 4X MIC, 0.5 μg/mL): 0 CFU
Count 2 (B. fragilis; selection 4X MIC, 0.5 μg/mL): 0 CFU
Spontaneous Mutation Frequency (B. fragilis; selection 4X MIC, 0.5 μg/mL): ≤1.48 × 10^−10
Average Count (B. fragilis; selection 8X MIC, 1 μg/mL): 0 CFU
Count 1 (B. fragilis; selection 8X MIC, 1 μg/mL): 0 CFU
Count 2 (B. fragilis; selection 8X MIC, 1 μg/mL): 0 CFU
Spontaneous Mutation Frequency (B. fragilis; selection 8X MIC, 1 μg/mL): ≤1.48 × 10^−10
MPC (B. ovatus): 0.5 µg/mL
Average Count (B. ovatus; selection 4X MIC, 0.5 μg/mL): 0 CFU
Count 1 (B. ovatus; selection 4X MIC, 0.5 μg/mL): 0 CFU
Count 2 (B. ovatus; selection 4X MIC, 0.5 μg/mL): 0 CFU
Spontaneous Mutation Frequency (B. ovatus; selection 4X MIC, 0.5 μg/mL): ≤1.05 × 10^−10
Average Count (B. ovatus; selection 8X MIC, 1 μg/mL): 0 CFU
Count 1 (B. ovatus; selection 8X MIC, 1 μg/mL): 0 CFU
Count 2 (B. ovatus; selection 8X MIC, 1 μg/mL): 0 CFU
Spontaneous Mutation Frequency (B. ovatus; selection 8X MIC, 1 μg/mL): ≤1.05 × 10^−10
MIC, CLSI QC range [5]: (0.03-0.25)^1 μg/mL
% S (Enterobacter spp.): 57.5%
MIC50 (Enterobacter spp.): 0.5 µg/mL (≈ 1.3 µM)
MIC90 (Enterobacter spp.): 64 µg/mL (≈ 167 µM)
CLSI QC range (agar MIC) [6]: 0.008 to 0.06 µg/mL
% S (Prevotella melanogenica): 100%
MIC50 (Prevotella melanogenica): 0.06 µg/mL (≈ 0.156 µM)
MIC90 (Prevotella melanogenica): 0.25 µg/mL (≈ 0.652 µM)
MIC range (Prevotella melanogenica): ≤0.03 to 0.25 µg/mL
% S (Enterobacteriaceae): 97.2%
MIC50 (Enterobacteriaceae): 0.03 µg/mL (≈ 0.0782 µM)
MIC90 (Enterobacteriaceae): 0.12 µg/mL (≈ 0.313 µM)
CLSI QC range (MIC) (B. fragilis ATCC 25285 [7]): (0.03-0.25)^1 μg/mL
% S (Klebsiella spp.): 78.3%
MIC50 (Klebsiella spp.): ≤0.06 µg/mL
MIC90 (Klebsiella spp.): >8 µg/mL
% S (Pseudomonas aeruginosa): 64.2%
MIC50 (Pseudomonas aeruginosa): 1 µg/mL (≈ 2.61 µM)
MIC90 (Pseudomonas aeruginosa): >8 µg/mL

CO[C@H]1/C=C/O[C@@]2(C)Oc3c(C)c(O)c4c(O)c(c5c(nc6cc(C)ccn65)c4c3C2=O)NC(=O)/C(C)=C\C=C\[C@H](C)[C@H](O)[C@@H](C)[C@@H](O)[C@@H](C)[C@H](OC(C)=O)[C@@H]1C [rifaximin]
MIC50 (Bacteroides fragilis [8]): 0.25 µg/mL (≈ 0.318 µM)
MIC90 (Bacteroides fragilis [8]): >1024 µg/mL
MIC50 (Bacteroides spp): >1024 µg/mL
MIC90 (Bacteroides spp): >1024 µg/mL
time-kill kinetics outcome (bactericidal = ≥3 log reduction in CFU per mL) (B. fragilis ATCC 25285 [4]): did not show evidence of killing
Cumulative percentage of isolates inhibited at MIC [9]: 20.0%
Number of test isolates at MIC [9]: 1
MIC50 (Staphylococci): ≤0.06 µg/mL
MIC90 (Staphylococci): 64 µg/mL (≈ 81.4 µM)
MIC range (Staphylococci): ≤0.06 to 64 µg/mL
MIC50 (Fusobacterium spp [10]): 8 µg/mL (≈ 10.2 µM)
MIC90 (Fusobacterium spp [10]): >1024 µg/mL
MFC (B. fragilis): >2 µg/mL
Average Count (B. fragilis; [11]): 11 CFU
Count 1 (B. fragilis; [11]): 12 CFU
Count 2 (B. fragilis; [11]): 10 CFU
Spontaneous Mutation Frequency (B. fragilis; [11]): 1.63 × 10^−9
Average Count (B. fragilis; [12]): 8 CFU
Count 1 (B. fragilis; [12]): 6 CFU
Count 2 (B. fragilis; [12]): 9 CFU
Spontaneous Mutation Frequency (B. fragilis; [12]): 1.19 × 10^−9
MFC (B. ovatus): >4 µg/mL
Average Count (B. ovatus; [13]): 34 CFU
Count 1 (B. ovatus; [13]): 31 CFU
Count 2 (B. ovatus; [13]): 37 CFU
Spontaneous Mutation Frequency (B. ovatus; [13]): 3.58 × 10^−9
Average Count (B. ovatus; [14]): 27 CFU
Count 1 (B. ovatus; [14]): 28 CFU
Count 2 (B. ovatus; [14]): 25 CFU
Spontaneous Mutation Frequency (B. ovatus; [14]): 2.84 × 10^−9
MIC50 (Bacteroides ovatus): 1 µg/mL (≈ 1.27 µM)
MIC90 (Bacteroides ovatus): 1 µg/mL (≈ 1.27 µM)

piperacillin/tazobactam [piperacillin-tazobactam]
CLSI QC range (MIC) (B. fragilis ATCC 25285 [7]): (4-16) μg/mL
